The subject of this data set is patients with MDD and metabolic comorbidities. Put plainly: Post hoc analysis of the Example 1 study: patients with MDD and metabolic comorbidities. In kind it is in vivo, human. The procedure:
Patients with MDD who have metabolic comorbidities face additional adverse events associated with antidepressants (e.g., weight gain, metabolic abnormalities) and often respond poorly. This example presents results from a post hoc analysis of clinical study of Example 1 in patients with MDD and metabolic comorbidities.
The clinical study of Example 1 enrolled patients with MDD, aged 18-75 years, with HAMD-17 score ≥20 and a MADRS total score ≥28 to 1 of 2 cohorts: 30 mg Cohort and 50 mg Cohort. HAMD-17 responders (≥50% reduction from baseline) at Day 15 continued in study and were assessed for retreatment eligibility.
Patients with a metabolic comorbidity were identified by the following coded terms in patient history: obesity, hyperlipidemia, hypercholesterolemia, type-2 diabetes mellitus, type-1 diabetes mellitus, glucose tolerance impaired, hypertriglyceridemia, dyslipidemia, metabolic syndrome, and/or diabetic dyslipidemia.

[1] abbreviates: Day 15 of first treatment cycle, metabolic comorbidities subpopulation.
[2] abbreviates: metabolic comorbidities subpopulation.

In the case of `C[C@@]1(O)CC[C@H]2[C@H](CC[C@@H]3[C@@H]2CC[C@]2(C)[C@@H](C(=O)Cn4cc(C#N)cn4)CC[C@@H]32)C1` [Compound (1), 1-(2-((3R,5R,8R,9R,10S,13S,14S,17S)-3-hydroxy-3,13-dimethylhexadecahydro-1H-cyclopenta[a]phenanthren-17-yl)-2-oxoethyl)-1H-pyrazole-4-carbonitrile], the “Patients not requiring additional treatment courses during their time in the study” value (161/253 who responded to and completed the first treatment cycle) is given as 55.9%. Also, under setting [1], the HAMD-17 remission rate is given as 37.1%, the HAMD-17 response rate worked out at 67.3% and the “Mean (SD) CFB in HAMD-17” value is listed as −14.8 (7.10). Under setting [2], this molecule gave a TEAE diarrhea of 6.7%, a TEAE dizziness of 9.1%, a TEAE dry mouth of 5.5% and a TEAE headache of 14.2%. Under setting [2], the TEAE sedation is on record as 5.1%, the TEAE somnolence came to 13.8% and the “TEAE upper respiratory infection” value was 5.9%. For the same molecule, under “metabolic comorbidities subpopulation (8/253)”, the “TEAEs leading to discontinuation of study drug” value is 3.2%. Also, the “TEAEs leading to withdrawal from the study” value (metabolic comorbidities subpopulation (11/253)) was determined as 4.3%. In addition, the “TEAEs leading to dose reduction” value (metabolic comorbidities subpopulation (19/253)) turned out to be 7.5%. In addition, for the setting “metabolic comorbidities subpopulation (148/167)”, the “Share of patients with TEAEs that were mild/moderate” value is on record as 88.6%. Further, the “Patients with ≥1 TEAE over the study duration” value (metabolic comorbidities subpopulation (167/253)) was 66.0%. Also, the “Mean (range) number of total treatment courses” value (metabolic comorbidities subpopulation, first-cycle responders) is recorded as 1.9 (1-5). In addition, the Tolerability result (patients with MDD and metabolic comorbidities) was “generally well tolerated”.

Values taken from US20240245711A1, “A 19-NOR C3,3-DISUBSTITUTED C21-N-PYRAZOLYL STEROID FOR THE TREATMENT OF MAJOR DEPRESSIVE DISORDER” (Sage Therapeutics, Inc., priority 2021, published 2024).
